# In US11247985B2, “Phenyl indole allosteric inhibitors of P97 ATPase” (University of Pittsburgh—Of the Commonwealth System of …, priority 2015, dated 2022):
# Molecular target: p97 ATPase WT (Homo sapiens (Human), UniProt P55072)
# Assay: p97 ADP-Glo assay
# Type: biochemical
# Conditions: Table 3; read-out: ADPGlo IC50
# Source text: ADP-Glo™ (Promega Corp.) is a bioluminescent, homogeneous assay that measures ADP formed from a biochemical reactions. Because of its high sensitivity, the assay is suitable for monitoring enzyme activities at very early substrate conversions requiring very low amount of enzymes.
# The ADP-Glo assay can be conducted as described in Chou, T.-F.; Bulfer, S. L.; Weihl, C.
# Chain of p97 ATPase WT (P55072 whole entry): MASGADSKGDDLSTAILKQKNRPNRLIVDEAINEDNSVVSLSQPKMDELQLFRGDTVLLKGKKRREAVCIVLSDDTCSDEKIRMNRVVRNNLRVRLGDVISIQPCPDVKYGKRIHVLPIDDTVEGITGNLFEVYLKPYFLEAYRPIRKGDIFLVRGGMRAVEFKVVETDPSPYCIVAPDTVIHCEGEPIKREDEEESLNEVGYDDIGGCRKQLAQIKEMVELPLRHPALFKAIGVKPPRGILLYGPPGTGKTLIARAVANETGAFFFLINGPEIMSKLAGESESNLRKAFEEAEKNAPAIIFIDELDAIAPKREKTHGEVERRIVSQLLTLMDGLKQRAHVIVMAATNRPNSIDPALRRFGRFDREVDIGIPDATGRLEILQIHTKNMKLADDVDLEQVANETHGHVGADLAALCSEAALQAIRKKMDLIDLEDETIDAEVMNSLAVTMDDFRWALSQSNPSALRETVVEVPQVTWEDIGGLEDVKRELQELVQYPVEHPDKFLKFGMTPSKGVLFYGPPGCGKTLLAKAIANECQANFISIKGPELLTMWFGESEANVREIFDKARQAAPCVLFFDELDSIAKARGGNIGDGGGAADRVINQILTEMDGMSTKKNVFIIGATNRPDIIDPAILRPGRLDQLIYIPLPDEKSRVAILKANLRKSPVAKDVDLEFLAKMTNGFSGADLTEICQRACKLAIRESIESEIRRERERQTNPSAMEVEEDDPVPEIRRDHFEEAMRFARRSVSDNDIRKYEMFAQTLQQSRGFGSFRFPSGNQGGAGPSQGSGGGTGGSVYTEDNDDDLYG
row,Structure (SMILES),IC50 [nM]
1,COCCN1CCN(CCNC2CCN(c3cccc(-c4cc5ccccc5[nH]4)c3)CC2)CC1,300
2,CC(C)N1CCN(CCNC2CCN(c3cccc(-c4cc5ccc(F)cc5[nH]4)c3)CC2)CC1,540
3,CN1CCN(CCCNC2CCN(c3cccc(-c4cc5ccccc5[nH]4)c3)CC2)CC1,210
4,CCOC(=O)Nc1cccc(N2CCC(NCCN3CCN(C(C)C)CC3)CC2)c1,1700
5,NC1CCN(c2cccc(-c3cc4ccccc4[nH]3)c2)CC1,1800
6,CC(C)N1CCN(CCNC2CCN(c3cccc(-c4cc5ccccc5[nH]4)c3)CC2)C(=O)C1,1900
7,Cn1ncnc1CCNC1CCN(c2cccc(-c3cc4cc(F)c(F)cc4[nH]3)c2)CC1,2200
8,CC(C)(C)OC(=O)N1CCN(CCNC2CCN(c3cccc(-c4cc5ccccc5[nH]4)c3)CC2)CC1,2400
9,FC1(F)CCN(CCNC2CCN(c3cccc(-c4cc5ccccc5[nH]4)c3)CC2)CC1,2400
10,CC(C)N1CCN(CCNC2CCN(c3cccc(-c4cc5cccc(F)c5[nH]4)c3)CC2)CC1,3300
11,CC(C)N1CCN(CCNC2CCN(c3cccc(-c4cc5cc(OC(F)(F)F)ccc5[nH]4)c3)CC2)CC1,3700
12,CC(C)N1CCN(CCNC2CCN(c3cccc(-c4cc5cnccc5[nH]4)c3)CC2)CC1,3800
13,CC(C)N1CCN(C2(CNC(=O)C3CCN(c4cccc(-c5cc6cc(F)ccc6[nH]5)c4)CC3)CCC2)CC1,3800
14,CC(C)N1CCC(NC(=O)C2CCN(c3cccc(-c4cc5cc(F)ccc5[nH]4)c3)CC2)CC1,3900
15,CC(C)N1CCN(C2CCN(c3cccc(-c4cc5cc(F)ccc5[nH]4)c3)CC2)CC1,4300
16,Cc1ccc(N2CCC(NCCc3ncnn3C)CC2)cc1-c1cc2ccccc2[nH]1,4500
17,CC(C)N1CCN(CCNC2CCN(c3cccc(-c4cc5ccc([N+](=O)[O-])cc5[nH]4)c3)CC2)CC1,4600
18,CC(C)N1CCN(CCNC2CCN(c3cccc(-c4ccc5ccccc5c4)c3)CC2)CC1,5100
19,CC(C)N1CCN(CCNC2CCN(c3cccc(-c4cc5ccc(N)cc5[nH]4)c3)CC2)CC1,5200
20,CC(C)N1CCN(CCNC2CCN(c3cccc(-c4cc5cc(F)cnc5[nH]4)c3)CC2)CC1,5300

# Stronger by IC50, values ahead:
row,IC50 [nM],Structure (SMILES)
1,15,CN1CCN(C2(CNC3CCN(c4cccc(-c5cc6cc(F)ccc6[nH]5)c4)CC3)CCC2)CC1
2,15,CC(C)N1CCN(C2(CNC3CCN(c4cccc(-c5cc6cc(C#N)ccc6[nH]5)c4)CC3)CCC2)CC1
3,25,Cc1ccc(N2CCC(NCCN3CCN(C(C)C)CC3)CC2)cc1-c1cc2cc(F)ccc2[nH]1
4,26,CC(C)N1CCN(CCNC2CCN(c3cccc(-c4cc5cc(C#N)ccc5[nH]4)c3)CC2)CC1
5,26,CN1CCN(C2(CNC3CCN(c4cccc(-c5cc6cc(C#N)ccc6[nH]5)c4)CC3)CCC2)CC1
6,27,CC(C)N1CCN(CCNC2CCN(c3cccc(-c4cc5cc(F)ccc5[nH]4)c3)CC2)CC1
7,41,CC(C)N1CCN(C2(CNC3CCN(c4cccc(-c5cc6cc(F)ccc6[nH]5)c4)CC3)COC2)CC1
8,49,CC(C)N1CCC(NC2CCN(c3cccc(-c4cc5cc(F)ccc5[nH]4)c3)CC2)CC1
9,82,Cc1ccc(N2CCC(NC3CCN(C)CC3)CC2)cc1-c1cc2cc(F)ccc2[nH]1
10,86,Cc1ccc(N2CCC(NCCN3CCN(C(C)C)CC3)CC2)cc1-c1cc2cc(C#N)ccc2[nH]1
11,87,CC(C)N1CCN(CCNC2CCN(c3cccc(-c4cc5cc(C(N)=O)ccc5[nH]4)c3)CC2)CC1
12,92,CC(C)N1CCC(NC2CCN(c3cccc(-c4cc5cc(Cl)ccc5[nH]4)c3)CC2)CC1
13,100,CC(C)N1CCN(CCNC2CCN(c3cccc(-c4cc5cc(O)ccc5[nH]4)c3)CC2)CC1
14,100,Cc1ccc(N2CCC(NCC3(N4CCN(C(C)C)CC4)CCC3)CC2)cc1-c1cc2cc(C#N)ccc2[nH]1
15,110,CN1CCN(C2(CNC3CCN(c4cccc(-c5cc6cc(Cl)ccc6[nH]5)c4)CC3)CCC2)CC1
16,110,CC(C)N1CCN(C2(CNC3CCN(c4cccc(-c5cc6cc(C#N)ccc6[nH]5)c4)CC3)COC2)CC1
